Data on four compounds can be found in US20100094009A1, “NOVEL CRYSTALLINE COMPOUND USEFUL AS GLK ACTIVATOR” (priority 2006, published 2010).

Common to all, as to type: physicochemical
Data set [1] in a line: Conversion of the crystalline form in aqueous media.
Data set [2] is described as follows: Competitive slurries of Form A and Form B in a range of solvents. The text has this: Form B also has a much higher melting endotherm.
Data set [3] in a line: Solubility profile of solid forms.

Take `CC(C)Oc1cc(Oc2cnc(C(=O)N3CCC3)cn2)cc(C(=O)Nc2cc[nH]n2)c1` [Form A, 3-{[5-(Azetidin-1-ylcarbonyl)pyrazin-2-yl]oxy}-5-[(1-methylethyl)oxy]-N-1H-pyrazol-3-ylbenzamide]: the “conversion to other solid forms in aqueous media” value (“conversion to other solid forms” below) in data set [1] is given as “convert to the amorphous form”.

Turning to `CC(C)Oc1cc(Oc2cnc(C(=O)N3CCC3)cn2)cc(C(=O)Nc2cc[nH]n2)c1` [Form A′, 3-{[5-(azetidin-1-ylcarbonyl)pyrazin-2-yl]oxy}-5-[(1-methylethyl)oxy]-N-1H-pyrazol-3-ylbenzamide], the “conversion to other solid forms” value in data set [1] is reported as “convert to the amorphous form”.

In the case of `CC(C)Oc1cc(Oc2cnc(C(=O)N3CCC3)cn2)cc(C(=O)Nc2cc[nH]n2)c1` [Form B, 3-{[5-(azetidin-1-ylcarbonyl)pyrazin-2-yl]oxy}-5-[(1-methylethyl)oxy]-N-1H-pyrazol-3-ylbenzamide], the “conversion to other solid forms” value in data set [1] is on record as “does not significantly convert to other forms”. Further, the “relative stability of crystalline forms in competitive slurries” value in data set [2] was “most stable form”.

As to `CC(C)Oc1cc(Oc2cnc(C(=O)N3CCC3)cn2)cc(C(=O)Nc2cc[nH]n2)c1` [amorphous form, 3-{[5-(azetidin-1-ylcarbonyl)pyrazin-2-yl]oxy}-5-[(1-methylethyl)oxy]-N-1H-pyrazol-3-ylbenzamide], the “solubility profile compared with Form A” value in data set [3] is “different solubility profile”.
